What was measured:
human skin cells = assay type: cell-based
[1] = test system: Human skeletal muscle cells; assay type: cell-based
Large^myd mice = test: Body weight change and muscle weight of Large^myd mice; assay type: in vivo; settings: 40 mg/kg body weight daily, not on weekends, 3 months
Procedure: The body weight change and muscle weight of treated Large^myd mice was also evaluated. Large^myd mice (at age of 10 weeks, male:female=1:1) received Compound D2 (40 mg/kg body weight) daily. No treatment on weekends. […] The muscle weight gain for the TA and EDL muscles are summarized below.

In the case of CCCC(CCC)CO[N+](=O)[O-] [Compound D2, 2-propylpentyl nitrate], the “calcification (calcium-45 accumulation)” value (human skin cells) is reported as “significant reduction”, the “calcification (calcium-45 accumulation)” value [1] is reported as “reduce calcification” and the EDL muscle mass (Large^myd mice; control 0.015 ± 0.001) is reported as 0.017 ± 0.001 gram. For the same molecule, the TA muscle mass (Large^myd mice; control 0.048 ± 0.004) was 0.054 ± 0.004 gram and the Body weight increase (Large^myd mice; control 2%) was 13%;.
